From patent publication US7223759B2, “Antibacterial 3,5-diaminopiperidine-substituted aromatic and heteroaromatic compounds” (Anadys Pharmaceuticals, Inc., priority 2003, dated 2007)
Like-named read-outs stand apart in the source and are kept apart here.

Test system: Escherichia coli (ATCC25922) or Staphylococcus aureus (ATCC25923)
Assay: Antibacterial MIC, microdilution method in Mueller-Hinton medium
Type: cell-based
Settings: Escherichia coli, 18 h, read-out: Potency (MIC)
How it was run: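 Two-fold serial dilutions from 64 to 0.5 μg/ml, in duplicate, by broth microdilution in Mueller-Hinton medium (NCCLS M7-A5). MIC taken as the lowest concentration preventing visible growth after 18 h at 35° C.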

[1] = MIC in E. coli or S. aureus, two-fold serial dilutions 64 to 0.5 μg/ml in duplicate, 18 hours of incubation at 35° C.

| MIC [1] [µg/mL] | SMILES | MIC [µg/mL] |
| --- | --- | --- |
| < 64 | Cl.N[C@@H]1C[C@H](N)CN(c2nc(Nc3cccc(C(F)(F)F)c3)nc(N3C[C@H](N)C[C@H](N)C3)n2)C1 [N-(3-trifluoromethyl-phenyl)-4,6-Bis-((3R,5S)-3,5-diamino-piperidin-1-yl)-[1,3,5]triazine-2-amine] |  |
|  | N[C@@H]1C[C@H](N)CN(c2nc(NNC3=NCCCN3)nc(N3C[C@H](N)C[C@H](N)C3)n2)C1 [N-(4,6-Bis-((3R,5S)-3,5-diamino-piperidin-1-yl)-[1,3,5]triazin-2-yl)-N′-(1,4,5,6-tetrahydro-pyrimidin-2-yl)-hydrazine] | > 64 |
| < 64 | Cl.N[C@@H]1C[C@H](N)CN(c2nc(NNc3cc(Cl)ccc3Cl)nc(N3C[C@H](N)C[C@H](N)C3)n2)C1 [N-(4,6-Bis-((3R,5S)-3,5-diamino-piperidin-1-yl)-[1,3,5]triazin-2-yl)-N′-(2,5-Dichloro-phenyl)-hydrazine] |  |
|  | N[C@@H]1C[C@H](N)CN(c2nc(NNc3ccccc3F)nc(N3C[C@H](N)C[C@H](N)C3)n2)C1 [N-(4,6-Bis-((3R,5S)-3,5-diamino-piperidin-1-yl)-[1,3,5]triazin-2-yl)-N′-(2-Fluoro-phenyl)-hydrazine] | > 64 |
|  | N[C@@H]1C[C@H](N)CN(c2nc(NNc3cc(Cl)cc(Cl)c3)nc(N3C[C@H](N)C[C@H](N)C3)n2)C1 [N-(4,6-Bis-((3R,5S)-3,5-diamino-piperidin-1-yl)-[1,3,5]triazin-2-yl)-N′-(3,5-Dichloro-phenyl)-hydrazine] | < 64 |
|  | N[C@@H]1C[C@H](N)CN(c2nc(NNc3cccc(Cl)c3)nc(N3C[C@H](N)C[C@H](N)C3)n2)C1 [N-(4,6-Bis-((3R,5S)-3,5-diamino-piperidin-1-yl)-[1,3,5]triazin-2-yl)-N′-(3-Chloro-phenyl)-hydrazine] | < 64 |
|  | N[C@@H]1C[C@H](N)CN(c2nc(NNc3cccc(F)c3)nc(N3C[C@H](N)C[C@H](N)C3)n2)C1 [N-(4,6-Bis-((3R,5S)-3,5-diamino-piperidin-1-yl)-[1,3,5]triazin-2-yl)-N′-(3-Fluoro-phenyl)-hydrazine] | > 64 |
|  | N[C@@H]1C[C@H](N)CN(c2nc(NNc3cccc(C(F)(F)F)c3)nc(N3C[C@H](N)C[C@H](N)C3)n2)C1 [N-(4,6-Bis-((3R,5S)-3,5-diamino-piperidin-1-yl)-[1,3,5]triazin-2-yl)-N′-(3-Trifluoromethyl-phenyl)-hydrazine] | < 64 |
|  | N[C@@H]1C[C@H](N)CN(c2nc(NNc3ccc(F)cc3)nc(N3C[C@H](N)C[C@H](N)C3)n2)C1 [N-(4,6-Bis-((3R,5S)-3,5-diamino-piperidin-1-yl)-[1,3,5]triazin-2-yl)-N′-(4-Fluoro-phenyl)-hydrazine] | < 64 |
| > 64 | Cc1csc2c(NNc3nc(N4C[C@H](N)C[C@H](N)C4)nc(N4C[C@H](N)C[C@H](N)C4)n3)ncnc12.Cl [N-(4,6-Bis-((3R,5S)-3,5-diamino-piperidin-1-yl)-[1,3,5]triazin-2-yl)-N′-(7-Methyl-thieno[3,2-d]pyrimidin-4-yl)-hydrazine] |  |
|  | N[C@@H]1C[C@H](N)CN(c2nc(NNc3ccccc3)nc(N3C[C@H](N)C[C@H](N)C3)n2)C1 [N-(4,6-Bis-((3R,5S)-3,5-diamino-piperidin-1-yl)-[1,3,5]triazin-2-yl)-N′-Phenyl-hydrazine] | > 64 |
|  | N[C@@H]1C[C@H](N)CN(c2nc(NNc3ccccn3)nc(N3C[C@H](N)C[C@H](N)C3)n2)C1 [N-(4,6-Bis-((3R,5S)-3,5-diamino-piperidin-1-yl)-[1,3,5]triazin-2-yl)-N′-Pyridin-2-yl-hydrazine] | > 64 |
|  | Cc1cccc(NNc2nc(N3C[C@H](N)C[C@H](N)C3)nc(N3C[C@H](N)C[C@H](N)C3)n2)c1 [N-(4,6-Bis-((3R,5S)-3,5-diamino-piperidin-1-yl)-[1,3,5]triazin-2-yl)-N′-m-Tolyl-hydrazine] | < 64 |
|  | Cc1ccccc1NNc1nc(N2C[C@H](N)C[C@H](N)C2)nc(N2C[C@H](N)C[C@H](N)C2)n1 [N-(4,6-Bis-((3R,5S)-3,5-diamino-piperidin-1-yl)-[1,3,5]triazin-2-yl)-N′-o-Tolyl-hydrazine] | < 64 |
|  | Cc1ccc(NNc2nc(N3C[C@H](N)C[C@H](N)C3)nc(N3C[C@H](N)C[C@H](N)C3)n2)cc1 [N-(4,6-Bis-((3R,5S)-3,5-diamino-piperidin-1-yl)-[1,3,5]triazin-2-yl)-N′-p-Tolyl-hydrazine] | < 64 |
|  | CC(=O)c1ccc(Nc2nc(N3C[C@H](N)C[C@H](N)C3)nc(N3C[C@H](N)C[C@H](N)C3)n2)cc1 [N-(4-acetyl-phenyl)-4,6-Bis-((3R,5S)-3,5-diamino-piperidin-1-yl)-[1,3,5]triazine-2-amine] | < 64 |
|  | CC(=O)Nc1ccc(Nc2nc(N3C[C@H](N)C[C@H](N)C3)nc(N3C[C@H](N)C[C@H](N)C3)n2)cc1O [N-(4-acetylamino-3-hydroxy-phenyl)-4,6-Bis-((3R,5S)-3,5-diamino-piperidin-1-yl)-[1,3,5]triazine-2-amine] | > 64 |

| MIC [1] [µg/mL] | SMILES | MIC [µg/mL] |
| --- | --- | --- |
|  | Nc1ccc(Nc2nc(N3C[C@H](N)C[C@H](N)C3)nc(N3C[C@H](N)C[C@H](N)C3)n2)cc1OCc1ccccc1 [N-(4-amino-3-benzyloxy-phenyl)-4,6-Bis-((3R,5S)-3,5-diamino-piperidin-1-yl)-[1,3,5]triazine-2-amine] | > 64 |
| > 64 | Cl.Nc1ccc(Nc2nc(N3C[C@H](N)C[C@H](N)C3)nc(N3C[C@H](N)C[C@H](N)C3)n2)cc1 [N-(4-amino-phenyl)-4,6-Biss-((3R,5S)-3,5-diamino-piperidin-1-yl)-[1,3,5]triazine-2-amine] |  |
|  | N[C@@H]1C[C@H](N)CN(c2nc(Nc3ccc(NS(=O)(=O)c4ccccc4)c(O)c3)nc(N3C[C@H](N)C[C@H](N)C3)n2)C1 [N-(4-benzenesulfonylamino-3-hydroxy-phenyl)-4,6-Bis-((3R,5S)-3,5-diamino-piperidin-1-yl)-[1,3,5]triazine-2-amine] | < 64 |
|  | N[C@@H]1C[C@H](N)CN(c2nc(Nc3ccc(C(=O)c4ccccc4)cc3)nc(N3C[C@H](N)C[C@H](N)C3)n2)C1 [N-(4-benzoyl-phenyl)-4,6-Bis-((3R,5S)-3,5-diamino-piperidin-1-yl)-[1,3,5]triazine-2-amine] | < 64 |
|  | N[C@@H]1C[C@H](N)CN(c2nc(Nc3ccc(NC(=O)c4ccccc4)c(O)c3)nc(N3C[C@H](N)C[C@H](N)C3)n2)C1 [N-(4-benzoylamino-3-hydroxy-phenyl)-4,6-Bis-((3R,5S)-3,5-diamino-piperidin-1-yl)-[1,3,5]triazine-2-amine] | < 16 |
| > 64 | Cc1cc(NC(=O)c2ccccc2)c(Cl)cc1Nc1nc(N2CCCCC2)nc(N2CCCCC2)n1 [N-(4-benzoylamino-5-chloro-23-methyl-phenyl)-4,6-Bis((3R,5S)-3,5-diamino-piperidin-1-yl)-[1,3,5]triazine-2-amine] |  |
|  | Cc1cc(Br)ccc1Nc1nc(N2C[C@H](N)C[C@H](N)C2)nc(N2C[C@H](N)C[C@H](N)C2)n1 [N-(4-bromo-2-methyl-phenyl)-4,6-Bis-((3R,5S)-3,5-diamino-piperidin-1-yl)-[1,3,5]triazine-2-amine] | > 64 |
| > 64 | N[C@@H]1C[C@H](N)CN(c2nc(Nc3ccc(Br)cc3)nc(N3C[C@H](N)C[C@H](N)C3)n2)C1 [N-(4-bromo-phenyl)-4,6-Bis-((3R,5S)-3,5-diamino-piperidin-1-yl)-[1,3,5]triazine-2-amine] |  |
|  | CCCC(=O)Nc1ccc(Nc2nc(N3C[C@H](N)C[C@H](N)C3)nc(N3C[C@H](N)C[C@H](N)C3)n2)cc1O [N-(4-butyrylamino-3-hydroxy-phenyl)-4,6-Bis-((3R,5S)-3,5-diamino-piperidin-1-yl)-[1,3,5]triazine-2-amine] | > 64 |
| > 64 | Cl.NC(=O)c1ccc(Nc2nc(N3C[C@H](N)C[C@H](N)C3)nc(N3C[C@H](N)C[C@H](N)C3)n2)cc1 [N-(4-carbamoyl-phenyl)-4,6-Bis-((3R,5S)-3,5-diamino-piperidin-1-yl)-[1,3,5]triazine-2-amine] |  |
|  | N[C@@H]1C[C@H](N)CN(c2nc(Nc3ccc(-n4c5ccccc5c5ccccc54)cc3)nc(N3C[C@H](N)C[C@H](N)C3)n2)C1 [N-(4-carbazol-9-yl-phenyl)-4,6-Bis-((3R,5S)-3,5-diamino-piperidin-1-yl)-[1,3,5]triazine-2-amine] | < 16 |
| > 64 | Cc1cc(Cl)ccc1CNc1nc(N2CCCCC2)nc(N2CCCCC2)n1.Cl [N-(4-chloro-2-methyl-benzyl)-44,6-Bis-((3R,5S)-3,5-diamino-piperidin-1-yl)-[1,3,5]triazine-2-amine] |  |
|  | CCCCCCCCCC(=O)Nc1ccc(Nc2nc(N3C[C@H](N)C[C@H](N)C3)nc(N3C[C@H](N)C[C@H](N)C3)n2)cc1O [N-(4-decanoylamino-3-hydroxy-phenyl)-4,6-Bis-((3R,5S)-3,5-diamino-piperidin-1-yl)-[1,3,5]triazine-2-amine] | < 16 |
|  | CCN(CC)c1ccc(Nc2nc(N3C[C@H](N)C[C@H](N)C3)nc(N3C[C@H](N)C[C@H](N)C3)n2)cc1 [N-(4-diethylamino-phenyl)-4,6-Bis-((3R,5S)-3,5-diamino-piperidin-1-yl)-[1,3,5]triazine-2-amine] | > 64 |
|  | CCCCCC(=O)Nc1ccc(Nc2nc(N3C[C@H](N)C[C@H](N)C3)nc(N3C[C@H](N)C[C@H](N)C3)n2)cc1O [N-(4-hexanoylamino-3-hydroxy-phenyl)-4,6-Bis-((3R,5S)-3,5-diamino-piperidin-1-yl)-[1,3,5]triazine-2-amine] | < 16 |
|  | CCCCCCOc1ccc(Nc2nc(N3C[C@H](N)C[C@H](N)C3)nc(N3C[C@H](N)C[C@H](N)C3)n2)cc1 [N-(4-hexyloxy-phenyl)-4,6-Bis-((3R,5S)-3,5-diamino-piperidin-1-yl)-[1,3,5]triazine-2-amine] | < 16 |

| SMILES | MIC [1] [µg/mL] | MIC [µg/mL] |
| --- | --- | --- |
| N[C@@H]1C[C@H](N)CN(c2nc(NNc3ccc([N+](=O)[O-])cc3[N+](=O)[O-])nc(N3C[C@H](N)C[C@H](N)C3)n2)C1 [N-(4,6-Bis-((3R,5S)-3,5-diamino-piperidin-1-yl)-[1,3,5]triazin-2-yl)-N′-(2,4-Dinitro-phenyl)-hydrazine] | > 64 |  |
